Reference: patent US5688767A, “Treatment of endotoxin-associated disorders with cationic peptides” (priority 1996, dated 1997)

How the values were obtained:
[1] = system: P. aeruginosa H309 or E. cloacae 218R1; assay: Lysozyme lysis assay (outer membrane permeabilization); format: cell-based, Pseudomonas aeruginosa; Enterobacter cloacae; conditions: 50 μg/ml lysozyme, varying concentrations of compound
Method: Membrane permeabilization by polycationic compounds was measured in two different assays. The first assay measured membrane disruption by the ability of lysozyme to reach the periplasm and cause cell lysis. […] The uptake of lysozyme into whole cells due to membrane permeabilization by various compounds was previously described in Hancock, et al., Antimicrobial Agents and Chemo., 19:777, 1981. Overnight cultures of P. aeruginosa H309 or E. cloacae 218R1 grown in LB-S were diluted 1 in 50 in fresh medium and grown to an OD600 =0.5-0.6. The cells were harvested in a Silencer H-103N clinical centrifuge at 1800 g for 10 min, washed once with one volume of assay buffer (5 mM HEPES pH 7.2, 5 mM KCN), and resuspended in the same buffer to an OD600 of 0.5. Assays consisted of 600 μl of cells with 50 μg/ml of chicken egg white lysozyme and varying concentrations of cationic compounds. Cell lysis was measured as a decrease in the OD600 in a Perkin-Elmer dual beam spectrophotometer. Parallel experiments performed without lysozyme enabled the measurement of the lytic activity of the compounds themselves. To test whether or not permeability to lysozyme could be inhibited by divalent cations, various concentrations of MgCl2 were added to the assay after the addition of lysozyme and before the addition of the test compound.

LPS-induced endotoxemia = assay: Protection from lethal LPS endotoxicity in galactosamine-sensitized mouse endotoxic shock model; format: in vivo, mice; conditions: for % Mortality / dead/total: LPS 10 ug
Method: The ability of CEME and CEMA to protect against LPS-induced endotoxemia was assessed in vivo. Mice (8-10 weeks old) were injected intraperitoneally with […] D-galactosamine (Dgal) to sensitize them to LPS according to the mode of Galanos (Galanos, et al., Proc. Natl. Acad. Sci., USA, 76:5939-5943, 1979), followed by 0, 50, 100, or 200 μg CEME or CEMA in 100 μl. Immediately afterwards LPS (10 or 20 μg) in 100 μl was injected.
Mice are naturally resistant to LPS. […] Endotoxic shock was induced by intraperitoneal injection of 10 or 20 μg of E. coli 0111:B4 LPS in phosphate-buffered saline (PBS), pH 7.2 into galactosamine-sensitized 8-10 week old female CD-1 mice (Galanos, C., supra; Freudenberg, M. A., Inf. Immun., 51:891, 1986). In experiments involving peptides, 50-200 μg in 100 μl sterile water injected at separate intraperitoneal sites immediately before or after LPS injection. In survival experiments, survival was monitored at 24 to 48 hours post injection. In experiments measuring TNF, blood was withdrawn by cardiac puncture at timed intervals up to 8 hours after the injections and allowed to clot prior to measurement of TNF in the serum.
In contrast when CEMA was injected at around the same time as LPS, but at separate site in the peritoneum, it protected mice in a dose dependant fashion (FIG. 17). Endotoxemia was induced with 10 μg of E. coli 0111:B4 LPS injected into the peritoneum. Subsequently 50, 100, or 200 μg (2.2, 4.4, and 8.7 mg/kg) of CEME or CEMA was injected into a separate site in the peritoneum. […] mice were assessed for each experimental point. Mortality was observed after 24 hrs.

[2] = MIC of common antibiotics in the presence of sub-MIC levels of cationic peptides; format: cell-based
Excerpt: The ability of the cationic peptides to work synergistically was examined by determining the MIC values for some commonly used antibiotics in the presence of sub-MIC levels of cationic peptides (Table 4). […] This may be due to the high membrane permeabilizing activity of CEMA (see below). However, the peptides did lower the MIC of polymyxin B, possibly due to the fact that they are all taken up by the same pathway and are therefore aiding each other's uptake. Of interest is the influence that melittin has on the MIC of polymyxin B, given the weak membrane permeabilizing activity of melittin.

| Compound | permeabilization of outer membrane to lysozyme [1] | survival (LPS-induced endotoxemia; 10 μg E. coli 0111:B4 LPS, peptide 50 μg) | survival (LPS-induced endotoxemia; 10 μg E. coli 0111:B4 LPS, peptide 100 μg) | survival / mice protected (LPS-induced endotoxemia; 10 μg E. coli 0111:B4 LPS, peptide 200 μg (8.7 mg/kg)) | % Mortality (LPS-induced endotoxemia; peptide 50 ug) | dead/total (LPS-induced endotoxemia; peptide 50 ug) | % Mortality (LPS-induced endotoxemia; peptide 100 ug) | dead/total (LPS-induced endotoxemia; peptide 100 ug) | % Mortality (LPS-induced endotoxemia; peptide 200 ug) | dead/total (LPS-induced endotoxemia; peptide 200 ug) | MIC in the presence of ([2]; CEMA 0.7 μg/ml) | MIC in the presence of ([2]; CEMA 1.4 μg/ml) | MIC in the presence of ([2]; CEME 0.6 μg/ml) | MIC in the presence of ([2]; CEME 1.2 μg/ml) | MIC in the presence of ([2]; Melittin 2 μg/ml) | MIC in the presence of ([2]; Melittin 4 μg/ml) | MIC in the presence of ([2]; No peptide) |
| --- | --- | --- | --- | --- | --- | --- | --- | --- | --- | --- | --- | --- | --- | --- | --- | --- | --- |
| CC[C@H](C)[C@H](NC(=O)CNC(=O)[C@@H](NC(=O)[C@H](CCCCN)NC(=O)[C@H](CCCCN)NC(=O)[C@H](Cc1ccccc1)NC(=O)[C@H](CC(C)C)NC(=O)[C@H](CCCCN)NC(=O)[C@H](Cc1c[nH]c2ccccc12)NC(=O)[C@@H](N)CCCCN)[C@@H](C)CC)C(=O)NCC(=O)N[C@@H](C)C(=O)N[C@H](C(=O)N[C@@H](CC(C)C)C(=O)N[C@@H](CCCCN)C(=O)N[C@H](C(=O)N[C@@H](CC(C)C)C(=O)N[C@H](C(=O)N[C@H](C(=O)NCC(=O)N[C@@H](CC(C)C)C(=O)N1CCC[C@H]1C(=O)N[C@@H](C)C(=O)N[C@@H](CC(C)C)C(=O)N[C@@H](CCCCN)C(=O)N[C@@H](CC(C)C)C(=O)N[C@H](C(=O)N[C@@H](CCCCN)C(=O)O)[C@@H](C)O)[C@@H](C)O)[C@@H](C)O)C(C)C)C(C)C [CEMA] | stronger permeabilizer for lysozyme than polymyxin B | 60% | 75% | 78% | 40% | 2/5 | 25% | 2/8 | 22% | 2/9 | – | – | – | – | – | – | – |
| polymyxin B | – | – | – | – | – | – | – | – | – | – | 0.5 μg/m1 | 0.12 μg/m1 | 0.5 μg/m1 | 0.25 μg/m1 | 0.5 μg/m1 | 0.06 μg/m1 | 1 μg/m1 |
